According to US20250129069A1, “TRIAZOLO WRN INHIBITORS” (Nimbus Wadjet, Inc., priority 2023, published 2025):
Like-named read-outs stand apart in the source and are kept apart here.

Assays:
[1] = biological target: human Werner helicase (WRN, amino acids 517-1235 with L1074F point mutation) (Homo sapiens (Human), UniProt Q14191, L1074F); assay: WRN (BV08) ADP-Glo assay; format: biochemical; conditions: human WRN (aa 517-1235, L1074F), read-out: ADP-Glo_hWRN_IC50
How it was run: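 ADP-Glo luminescence read after 60 min, 25 °C reaction of 0.15 nM WRN (517-1235, L1074F, Sf9-expressed, tag removed) with 0.1 nM DNA duplex and 5 μM ATP, following 15 min compound preincubation; 20 mM Bicine pH 7.5, 1% DMSO. IC50 from 3- or 4-parameter fit of % inhibition.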

[2] = tested on: p21 induction in HCT 116 cells; assay: p21 induction in cells (In-Cell Western, p21/GAPDH ratio); format: cell-based; conditions: 24 h compound incubation, read-out: p21_EC50
How it was run: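 EC50 values come from nonlinear fits of percent activation, defined by the 800/700 nm p21-to-GAPDH ratio scaled between DMSO (low) and internal WRN inhibitor (high) controls. In-Cell Western read after 24 h compound exposure of HCT 116 cells at 37° C. Duplicate 11-point series, 2-fold steps, usually starting at 10 μM.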

Chain of human Werner helicase (WRN, amino acids 517-1235 with L1074F point mutation) (Q14191 other isoform, or with tags, fused parts or gaps L1074F (already in the parent)): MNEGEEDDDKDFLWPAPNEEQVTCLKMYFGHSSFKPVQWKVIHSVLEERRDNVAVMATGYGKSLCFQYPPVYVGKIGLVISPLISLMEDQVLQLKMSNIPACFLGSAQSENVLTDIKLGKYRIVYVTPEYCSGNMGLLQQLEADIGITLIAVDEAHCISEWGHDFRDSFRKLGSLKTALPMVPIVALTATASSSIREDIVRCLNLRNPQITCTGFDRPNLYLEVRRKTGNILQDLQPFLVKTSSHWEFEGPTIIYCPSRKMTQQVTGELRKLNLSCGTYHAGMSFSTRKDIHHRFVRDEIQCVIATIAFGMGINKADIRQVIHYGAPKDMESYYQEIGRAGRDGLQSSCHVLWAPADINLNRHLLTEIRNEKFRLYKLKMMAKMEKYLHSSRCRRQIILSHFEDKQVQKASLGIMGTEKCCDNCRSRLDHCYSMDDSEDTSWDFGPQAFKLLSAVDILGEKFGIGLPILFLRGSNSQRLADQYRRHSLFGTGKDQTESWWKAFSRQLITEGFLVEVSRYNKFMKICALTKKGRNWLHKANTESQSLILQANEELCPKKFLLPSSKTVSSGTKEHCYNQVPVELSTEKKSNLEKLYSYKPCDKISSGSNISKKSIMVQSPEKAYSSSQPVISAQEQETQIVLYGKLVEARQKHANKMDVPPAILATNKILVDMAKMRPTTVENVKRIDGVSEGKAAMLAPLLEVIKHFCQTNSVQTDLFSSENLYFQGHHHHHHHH

| Compound | IC50 [1] [nM] | EC50 [2] [nM] | EC50 ([2]; Homo sapiens) [nM] |
| --- | --- | --- | --- |
| CCc1c(N2CCN(C(=O)c3ncnc(C)c3O)CC2)c(=O)c2nn(-c3ccnc(OC)c3)nc2n1CC(=O)NC12CC(C(F)(F)F)(C1)C2 [Compound I-5, 2-(5-ethyl-6-(4-(5-hydroxy-6-methylpyrimidine-4-carbonyl)piperazin-1-yl)-2-(2-methoxypyridin-4-yl)-7-oxo-2,7-dihydro-4H-[1,2,3]triazolo[4,5-b]pyridin-4-yl)-N-(3-(trifluoromethyl)bicyclo[1.1.1]pentan-1-yl)acetamide] | 5 to 50 | 500 to 2000 |  |
| CCc1c(N2CCN(C(=O)c3ncnc(C)c3O)[C@H]3CC[C@@H]32)c(=O)c2nn(C3=CCOCC3)nc2n1CC(=O)NC12CC(C(C)C)(C1)C2 [Compound I-49, 2-[2-(3,6-dihydro-2H-pyran-4-yl)-5-ethyl-6-[(1S,6S)-5-(5-hydroxy-6-methylpyrimidine-4-carbonyl)-2,5-diazabicyclo[4.2.0]octan-2-yl]-7-oxo-2H,4H,7H-[1,2,3]triazolo[4,5-b]pyridin-4-yl]-N-[3-(propan-2-yl)bicyclo[1.1.1]pentan-1-yl]acetamide] | 5 to 50 | ≤ 500 |  |
| CCc1c(C23CCN(C(=O)c4ncnc(C)c4O)CC2C3)c(=O)c2nn(-c3ccnc(OC)c3)nc2n1CC(=O)NC12CC(C(C)C)(C1)C2 [Compound I-42, rel-2-{5-ethyl-6-[(1R,6S)-3-(5-hydroxy-6-methylpyrimidine-4-carbonyl)-3-azabicyclo[4.1.0]heptan-6-yl]-2-(2-methoxypyridin-4-yl)-7-oxo-2H,4H,7H-[1,2,3]triazolo[4,5-b]pyridin-4-yl}-N-[3-(propan-2-yl)bicyclo[1.1.1]pentan-1-yl]acetamide] | 5 to 50 |  | 500 to 2000 |
| CCc1c(N2CCN(C(=O)c3c(O)ccc4ncoc34)CC2)c(=O)c2nn(C(C)C)nc2n1CC(=O)Nc1ccc(C(F)(F)F)cc1Cl [Compound I-139, N-[2-chloro-4-(trifluoromethyl)phenyl]-2-{5-ethyl-6-[4-(6-hydroxy-1,3-benzoxazole-7-carbonyl)piperazin-1-yl]-7-oxo-2-(propan-2-yl)-2H,4H,7H-[1,2,3]triazolo[4,5-b]pyridin-4-yl}acetamide] | ≤ 5 |  | ≤ 500 |
| CCc1c(N2CCN(C(=O)c3cccc4ncoc34)[C@H]3CC[C@@H]32)c(=O)c2nn(C3=CCOCC3)nc2n1CC(=O)NC12CC(C(C)C)(C1)C2 [Compound I-52, 2-{6-[(1S,6S)-5-(1,3-benzoxazole-7-carbonyl)-2,5-diazabicyclo[4.2.0]octan-2-yl]-2-(3,6-dihydro-2H-pyran-4-yl)-5-ethyl-7-oxo-2H,4H,7H-[1,2,3]triazolo[4,5-b]pyridin-4-yl}-N-[3-(propan-2-yl)bicyclo[1.1.1]pentan-1-yl]acetamide] | 5 to 50 |  | 500 to 2000 |
| CCc1c(N2CCN(C(=O)c3c(OC)ncc(C)c3O)[C@H]3CC[C@@H]32)c(=O)c2nn(-c3ccnc(OC)c3)nc2n1CC(=O)NC12CC(C(C)C)(C1)C2 [Compound I-116, 2-{5-ethyl-6-[(1S,6S)-5-(4-hydroxy-2-methoxy-5-methylpyridine-3-carbonyl)-2,5-diazabicyclo[4.2.0]octan-2-yl]-2-(2-methoxypyridin-4-yl)-7-oxo-2H,4H,7H-[1,2,3]triazolo[4,5-b]pyridin-4-yl}-N-[3-(propan-2-yl)bicyclo[1.1.1]pentan-1-yl]acetamide] | 5 to 50 |  | ≤ 500 |
| CCc1c(N2CCN(C(=O)c3cc(N4CCN(C)CC4)ccc3OC)[C@H]3CC[C@@H]32)c(=O)c2nn(C3=CCOCC3)nc2n1CC(=O)NC12CC(C(C)C)(C1)C2 [Compound I-165, 2-[2-(3,6-dihydro-2H-pyran-4-yl)-5-ethyl-6-[(1S,6S)-5-[2-methoxy-5-(4-methylpiperazin-1-yl)benzoyl]-2,5-diazabicyclo[4.2.0]octan-2-yl]-7-oxo-2H,4H,7H-[1,2,3]triazolo[4,5-b]pyridin-4-yl]-N-[3-(propan-2-yl)bicyclo[1.1.1]pentan-1-yl]acetamide] | 5 to 50 |  | 500 to 2000 |
| CCc1c(N2CCN(C(=O)c3ncnc(C)c3O)[C@H]3CC[C@@H]32)c(=O)c2nn(-c3cccc(C)n3)nc2n1CC(=O)NC12CC(C(C)C)(C1)C2 [Compound I-179, 2-{5-ethyl-6-[(1S,6S)-5-(5-hydroxy-6-methylpyrimidine-4-carbonyl)-2,5-diazabicyclo[4.2.0]octan-2-yl]-2-(6-methylpyridin-2-yl)-7-oxo-2H,4H,7H-[1,2,3]triazolo[4,5-b]pyridin-4-yl}-N-[3-(propan-2-yl)bicyclo[1.1.1]pentan-1-yl]acetamide] | 5 to 50 |  | ≤ 500 |
| CCc1c(N2CCN(C(=O)c3ncnc(C)c3O)[C@H]3CC[C@@H]32)c(=O)c2nn(-c3cc(C)n(C)n3)nc2n1CC(=O)NC12CC(C(C)C)(C1)C2 [Compound I-35, 2-[2-(1,5-dimethyl-1H-pyrazol-3-yl)-5-ethyl-6-[(1S,6S)-5-(5-hydroxy-6-methylpyrimidine-4-carbonyl)-2,5-diazabicyclo[4.2.0]octan-2-yl]-7-oxo-2H,4H,7H-[1,2,3]triazolo[4,5-b]pyridin-4-yl]-N-[3-(propan-2-yl)bicyclo[1.1.1]pentan-1-yl]acetamide] | 5 to 50 |  | ≤ 500 |
| CCc1c(N2CCN(C(=O)c3ccccc3C(=O)O)CC2)c(=O)c2nn(-c3ccnc(OC)c3)nc2n1CC(=O)NC12CC(C3CC3)(C1)C2 [Compound I-161, 2-(4-{4-[{{3-cyclopropylbicyclo[1.1.1]pentan-1-yl}carbamoyl)methyl]-5-ethyl-2-(2-methoxypyridin-4-yl)-7-oxo-2H,4H,7H-[1,2,3]triazolo[4,5-b]pyridin-6-yl}piperazine-1-carbonyl)benzoic acid] | 5 to 50 |  | > 5000 |
| CCc1c(N2CCN(C(=O)c3ncnc(C)c3O)[C@H]3CC[C@@H]32)c(=O)c2nn(-c3cnn(C4CC4)c3)nc2n1CC(=O)NC12CC(C(C)C)(C1)C2 [Compound I-58, 2-[2-(1-cyclopropyl-1H-pyrazol-4-yl)-5-ethyl-6-[(1S,6S)-5-(5-hydroxy-6-methylpyrimidine-4-carbonyl)-2,5-diazabicyclo[4.2.0]octan-2-yl]-7-oxo-2H,4H,7H-[1,2,3]triazolo[4,5-b]pyridin-4-yl]-N-[3-(propan-2-yl)bicyclo[1.1.1]pentan-1-yl]acetamide] | 5 to 50 | ≤ 500 |  |
| CCc1c(N2CCN(C(=O)c3c(OC)ncc(Cl)c3O)[C@H]3CC[C@@H]32)c(=O)c2nn(C3=CCOCC3)nc2n1CC(=O)NC12CC(C3CC3)(C1)C2 [Compound I-213, 2-{6-[(1S,6S)-5-(5-chloro-4-hydroxy-2-methoxypyridine-3-carbonyl)-2,5-diazabicyclo[4.2.0]octan-2-yl]-2-(3,6-dihydro-2H-pyran-4-yl)-5-ethyl-7-oxo-2H,4H,7H-[1,2,3]triazolo[4,5-b]pyridin-4-yl}-N-{3-cyclopropylbicyclo[1.1.1]pentan-1-yl}acetamide] | 5 to 50 |  | 2000 to 5000 |
| CCc1c(N2CCN(C(=O)c3cccc4ncoc34)[C@H]3CC[C@@H]32)c(=O)c2nn(C3=CCOCC3)nc2n1CC(=O)Nc1ccc(C(F)(F)F)cc1Cl [Compound I-115, 2-{6-[(1S,6S)-5-(1,3-benzoxazole-7-carbonyl)-2,5-diazabicyclo[4.2.0]octan-2-yl]-2-(3,6-dihydro-2H-pyran-4-yl)-5-ethyl-7-oxo-2H,4H,7H-[1,2,3]triazolo[4,5-b]pyridin-4-yl}-N-[2-chloro-4-(trifluoromethyl)phenyl]acetamide] | 5 to 50 |  | ≤ 500 |
| CCc1c(N2CCN(C(=O)c3ncnc(C)c3O)[C@H]3CC[C@@H]32)c(=O)c2nn(-c3ccn(C)n3)nc2n1CC(=O)NC12CC(C(C)C)(C1)C2 [Compound I-187, 2-{5-ethyl-6-[(1S,6S)-5-(5-hydroxy-6-methylpyrimidine-4-carbonyl)-2,5-diazabicyclo[4.2.0]octan-2-yl]-2-(1-methyl-1H-pyrazol-3-yl)-7-oxo-2H,4H,7H-[1,2,3]triazolo[4,5-b]pyridin-4-yl}-N-[3-(propan-2-yl)bicyclo[1.1.1]pentan-1-yl]acetamide] | 5 to 50 |  | ≤ 500 |
| CCc1c(N2CCN(C(=O)c3ncnc(C)c3O)[C@H]3CC[C@@H]32)c(=O)c2nn(-c3ccnc(C)c3)nc2n1CC(=O)NC12CC(C3CC3)(C1)C2 [Compound I-19, N-(3-cyclopropylbicyclo[1.1.1]pentan-1-yl)-2-(5-ethyl-6-((1S,6S)-5-(5-hydroxy-6-methylpyrimidine-4-carbonyl)-2,5-diazabicyclo[4.2.0]octan-2-yl)-2-(2-methylpyridin-4-yl)-7-oxo-2,7-dihydro-4H-[1,2,3]triazolo[4,5-b]pyridin-4-yl)acetamide] | 5 to 50 |  | ≤ 500 |
| CCc1c(N2CCN(C(=O)c3c(OC)ncc(C)c3O)CC2)c(=O)c2nn(-c3ccnc(OC)c3)nc2n1CC(=O)NC1CC2(C1)CC(C)(C)C2 [Compound I-105, N-{6,6-dimethylspiro[3.3]heptan-2-yl}-2-{5-ethyl-6-[4-(4-hydroxy-2-methoxy-5-methylpyridine-3-carbonyl)piperazin-1-yl]-2-(2-methoxypyridin-4-yl)-7-oxo-2H,4H,7H-[1,2,3]triazolo[4,5-b]pyridin-4-yl}acetamide] | 5 to 50 |  | > 5000 |
| CCc1c(N2CCN(C(=O)c3c(OC)ncc([C@H]4CCOC4)c3O)CC2)c(=O)c2nn(-c3ccnc(OC)c3)nc2n1CC(=O)NC12CC(C(C)C)(C1)C2 (single isomer, unassigned) [Compound I-43] | 5 to 50 |  | 500 to 2000 |
